Assay results as given in patent US20230413816A1, “COMPOSITIONS COMPRISING ALLYL SULFIDE AND A SURFACTANT AND METHODS OF USING SAME” (The State of Israel, Ministry of Agriculture & Rural …, priority 2020, published 2023).

Key:
[1] = system: Grapevines; assay: Bud break scored on the BBCH scale, commercial vineyard in South Africa (Example 3); type: in vivo, grapevine; conditions: for bud-breaking efficiency compared with commercially available agents (HC): sulfide compound with 2% w/w T7; for bud break score (BBCH scale): 36 days after treatment, untreated score 19
Excerpt: FIGS. 5A-5B are bar graphs presenting a comparison between the bud break efficiency of the exemplary compositions of the invention and controls in vine. The X-axis represents different treatments, and the Y-axis represents vine growth stage according to the BBCH scale, as scored 36 days after treatment. FIG. 5A represents a comparison between the synergistic bud break efficiency of T7 in combination with different sulfide compounds (DADS and dimethyl sulfide, DMS). 1—untreated vines (negative control); 2—2.5% w/w DMS and 2% w/w T7; 3—5% w/w DMS and 2% w/w T7; 4—HC (positive control); 5—5% w/w DADS and 2% w/w T7. FIG. 5B represents a comparison between the synergistic bud break efficiency of 6% w/w DADS in combination with various concentrations of T7 (entries 4-7) versus controls (entries 1-2, and 8). 1—untreated vines (negative control); 2—12% w/w T7 no DADS; 3—6% w/w DADS no T7; 4—6% w/w DADS and 12% w/w T7; 5—6% w/w DADS and 1% w/w T7; 6—6% w/w DADS and 2% w/w T7; 7—6% w/w DADS and 0.5% w/w T7; 8—HC (positive control).
Grapevines in a commercial vineyard in South Africa were sprayed exemplary agricultural compositions of the invention. Two different experimental treatments have been performed on 5 blocks of 14 vines. The bud break efficiency of each treatment has been evaluated by scoring 60 buds per vine according to BBCH scale at different time points after treatment. BBCH values represent average values of five blocks per treatment. The tested exemplary agricultural compositions utilized for each experimental treatment were as follows: • 2% w/w of T7 (see Table 1) together with various concentrations (2.5, 5 and 6% w/w) of the sulfide compound ([…] (DMS); and DADS). The effect of these treatments was compared to a commercial formulation comprising 50% HC; as well as to a negative control, i.e. untreated vines. The results of this experiment are represented in FIG. 5A. • 6% w/w DADS together with various concentrations (0.5, 1, 2 and 12% w/w) of T7. The effect of these treatments was compared to a commercial formulation comprising 50% HC; as well as to negative controls including untreated plant, and plants treated with 12% w/w T7 and 6% w/w DADS, respectively. The results of this experiment are represented in FIG. 5B.

[2] = system: whole vine; conditions: applied to the whole vine rather than to cuttings; cited from earlier work
[3] = system: spur-pruned cv. Early Sweet vines; assay: Bud breaking on whole vines in a vineyard (Example 1, Jordan Valley); type: in vivo, grapevine
Experimental: FIG. 1 is a graph presenting a comparison between the bud break efficiency of the exemplary compositions of the invention and controls, when applied to spur-pruned cv. Early Sweet vines at the beginning of January in a vineyard located at Argaman, the Jordan Valley, Israel. Bud counts were conducted once a week and started about […] after treatment. The tested combinations were as follows: (a) DADS at 6% w/w, together with (b) 2% w/w of a non-ionic surfactant (abbreviated as T3-D2, T4-D2, T5-D2, T6-D2 or T7-D2, respectively) or of a cationic surfactant (Armobreak®, abbreviated as T1-D2). The controls were as follows: (a) plants treated with Triton X-100 (abbreviated as Con), and (b) single treatments with DADS, HC, and the surfactants (abbreviated as T1, T3, T4, T5, T6 or T7, respectively). The chemical structures of the surfactants are as represented in Table 1, below. The Y-axis represents the percentage of the bursting buds out of the total number of the buds on a vine.
The Y-axis represent the percentage of bursting basal buds out of total number of spurs on a vine.
Mature spur-pruned cv. […]
Each formulation was sprayed onto five blocks of two vines, wherein the values presented in FIG. 1 are an average of the ten tested grapevines. […] Total number of buds was recorded once for each vine, and number of bursting buds were recoded for each vine at 22, 27, 34 and 41 d after treatment.

[4] = system: Kiwi plants; assay: Bud break trial on kiwi (Example 4); type: in vivo; conditions: 49 days after treatment
Excerpt: The inventors performed numerous experiments to assess the effect of application of an exemplary composition of the invention (e.g. about 6% w/w DADS and about 4% w/w T7) on bud break in various plants. For each test from about 500 to about 1500 l/ha of the composition have been applied (e.g. by spraying) to the orchard, to result in almost complete wetting of the treated plants. The tested plant species included kiwi, cherry, apple, and plum.

Structure (SMILES) | bud-breaking efficiency compared with commercially available agents (HC) [1] | bud break enhancing effect compared with HC [2] | bud break score (BBCH scale) ([1]; 2.5% w/w DMS and 2% w/w T7) | bud break score (BBCH scale) ([1]; 5% w/w DMS and 2% w/w T7) | bud break efficiency, ranking among the treatments of FIG. 1 ([3]; 6% w/w DADS + 2% w/w surfactant, or HC, percentage of bursting buds) | bud break uniformity along a spur ([3]; FIG. 3, basal buds) | bud break [4] | bud break of HC relative to the composition of the invention (times less) [4] | green foliage coverage score (of 10) [4]
C=CCSSCC=C [DADS, diallyl disulfide] | comparable with the efficiency of commercially available agents | very limited and inferior to HC |  |  |  |  |  |  | 
CSC [DMS, dimethyl sulfide] | comparable with the efficiency of commercially available agents |  | 24 | 30-31 |  |  |  |  | 
N#CN [HC, hydrogen cyanamide] |  |  |  |  | superior | significantly less uniform bud break | 24% | ~2 times | 2
